This experiment has as its target human KDR protein in HEK-293 cells (Homo sapiens (Human), UniProt P35968). As to the kind of experiment: KDR Cell Assay (phospho-KDR in HEK-293 cells expressing inducible KDR). The experiment is classed as cell-based. The settings on record: pKDR Cell HEK 10% FBS IC50, HEK-293 cells expressing inducible KDR, VEGF stimulated. The method, boiled down:
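HEK-293 cells with inducible human KDR were treated with compound for 1 h in DMEM (0.25% DMSO final), then lysed. Phospho-KDR was quantified by Meso Scale immunoassay, expressed as percent of control, and IC50 taken where a 4-parameter logistic fit crossed 50 POC.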

Experimental findings from patent US10023570B2 (Array BioPharma, Inc., priority 2015, dated 2018) are described below.

As usually defined, the IC50 is the concentration needed to halve the response being measured. A higher IC50 goes with weaker potency.

Counter-ions that a name gives are not always drawn.

Chain of human KDR protein in HEK-293 cells (P35968 20-1356): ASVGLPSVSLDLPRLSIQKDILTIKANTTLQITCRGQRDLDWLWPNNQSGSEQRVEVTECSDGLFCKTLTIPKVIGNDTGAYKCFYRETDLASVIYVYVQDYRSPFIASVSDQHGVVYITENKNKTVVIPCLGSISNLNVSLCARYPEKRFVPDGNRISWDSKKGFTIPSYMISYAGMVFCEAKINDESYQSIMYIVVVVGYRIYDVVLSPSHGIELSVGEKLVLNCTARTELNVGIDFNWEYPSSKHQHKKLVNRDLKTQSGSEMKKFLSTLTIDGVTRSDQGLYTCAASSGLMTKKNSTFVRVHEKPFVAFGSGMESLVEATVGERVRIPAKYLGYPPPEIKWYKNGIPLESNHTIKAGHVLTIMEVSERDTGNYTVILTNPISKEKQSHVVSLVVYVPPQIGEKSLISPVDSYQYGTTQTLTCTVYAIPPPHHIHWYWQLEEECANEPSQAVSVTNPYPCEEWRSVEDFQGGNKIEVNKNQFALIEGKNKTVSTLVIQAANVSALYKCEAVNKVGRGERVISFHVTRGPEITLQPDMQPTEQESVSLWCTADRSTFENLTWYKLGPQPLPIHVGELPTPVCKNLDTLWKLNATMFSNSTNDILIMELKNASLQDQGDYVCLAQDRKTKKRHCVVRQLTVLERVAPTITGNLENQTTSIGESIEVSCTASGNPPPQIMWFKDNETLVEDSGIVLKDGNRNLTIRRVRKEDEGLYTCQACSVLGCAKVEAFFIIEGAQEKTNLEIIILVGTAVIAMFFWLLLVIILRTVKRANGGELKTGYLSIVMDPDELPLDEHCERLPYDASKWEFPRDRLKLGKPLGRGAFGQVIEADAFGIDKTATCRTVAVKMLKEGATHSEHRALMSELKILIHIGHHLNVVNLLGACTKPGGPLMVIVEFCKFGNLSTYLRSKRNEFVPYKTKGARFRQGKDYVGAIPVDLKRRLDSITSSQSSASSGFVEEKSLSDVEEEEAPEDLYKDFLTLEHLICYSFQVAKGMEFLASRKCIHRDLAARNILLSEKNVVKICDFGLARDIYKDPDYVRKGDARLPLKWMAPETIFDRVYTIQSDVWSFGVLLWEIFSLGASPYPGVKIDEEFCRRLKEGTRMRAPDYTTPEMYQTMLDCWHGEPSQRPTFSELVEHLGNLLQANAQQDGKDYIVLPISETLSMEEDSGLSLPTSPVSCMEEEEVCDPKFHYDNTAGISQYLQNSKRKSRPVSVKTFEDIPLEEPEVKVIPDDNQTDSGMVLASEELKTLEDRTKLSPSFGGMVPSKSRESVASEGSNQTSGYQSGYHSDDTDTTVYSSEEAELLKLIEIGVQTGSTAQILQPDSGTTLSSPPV

Molecule `Cn1cc(-c2cc(-c3ccc(N4CCC5(CNC5)C4)nc3)c3c(C#N)cnn3c2)cn1` [Example 549, 4-(6-(2,6-diazaspiro[3.4]octan-6-yl)pyridin-3-yl)-6-(1-methyl-1H-pyrazol-4-yl)pyrazolo[1,5-a]pyridine-3-carbonitrile dihydrochloride] registered a half-maximal inhibitory concentration (IC50) of 0.986 µM.
The value for `CN1CCC2(CCCN(c3ccc(-c4cc(-c5cnn(C)c5)cn5ncc(C#N)c45)cn3)C2)CC1` [Example 555, 6-(1-methyl-1H-pyrazol-4-yl)-4-(6-(9-methyl-2,9-diazaspiro[5.5]undecan-2-yl)pyridin-3-yl)pyrazolo[1,5-a]pyridine-3-carbonitrile] was 1.03 µM; that for `CN1CCCC2(CCN(c3ccc(-c4cc(-c5cnn(C)c5)cn5ncc(C#N)c45)cn3)CC2)C1` [Example 556, 6-(1-methyl-1H-pyrazol-4-yl)-4-(6-(2-methyl-2,9-diazaspiro[5.5]undecan-9-yl)pyridin-3-yl)pyrazolo[1,5-a]pyridine-3-carbonitrile] was 1.9 µM.
Molecule `CN1CCCC12CCCN(c1ccc(-c3cc(-c4cnn(C)c4)cn4ncc(C#N)c34)cn1)C2` (stereo not drawn) [Example 557, 4-(6-(1-methyl-1,7-diazaspiro[4.5]decan-7-yl)pyridin-3-yl)-6-(1-methyl-1H-pyrazol-4-yl)pyrazolo[1,5-a]pyridine-3-carbonitrile] gave a concentration for half-maximal inhibition (IC50) of 0.802 µM.
The value for `Cn1cc(-c2cc(-c3ccc(N4CCC5(CN(Cc6ccccc6)C5)C4)nc3)c3c(C#N)cnn3c2)cn1` [Example 558, 4-(6-(2-benzyl-2,6-diazaspiro[3.4]octan-6-yl)pyridin-3-yl)-6-(1-methyl-1H-pyrazol-4-yl)pyrazolo[1,5-a]pyridine-3-carbonitrile] was 0.548 µM.
Consider `Cn1cc(-c2cc(-c3ccc(N4CCC(C(=O)NOCC5CC5)CC4)nc3)c3c(C#N)cnn3c2)cn1` [Example 563, 1-(5-(3-cyano-6-(1-methyl-1H-pyrazol-4-yl)pyrazolo[1,5-a]pyridin-4-yl)pyridin-2-yl)-N-(cyclopropylmethoxy)piperidine-4-carboxamide], for which half-maximal inhibition (IC50) was put at 0.195 µM.
`Cn1cc(-c2cc(-c3ccc(C4CN(Cc5ccccc5)C4)nc3)c3c(C#N)cnn3c2)cn1` [Example 580, 4-(6-(1-benzylazetidin-3-yl)pyridin-3-yl)-6-(1-methyl-1H-pyrazol-4-yl)pyrazolo[1,5-a]-pyridine-3-carbonitrile] had an IC50 of 1.24 µM.
The value for `Cn1cc(-c2cc(-c3ccc(C4CCCN(Cc5ccccc5)C4)nc3)c3c(C#N)cnn3c2)cn1` (stereo not drawn) [Example 581, 4-(6-(1-benzylpiperidin-3-yl)pyridine-3-yl)-6-(1-methyl-1H-pyrazol-4-yl)pyrazolo[1,5-a]pyridine-3-carbonitrile] was 0.671 µM.
The molecule `Cn1cc(-c2cc(-c3ccc(C4CCN(Cc5ccccc5)C4)nc3)c3c(C#N)cnn3c2)cn1` (stereo not drawn) [Example 582, 4-(6-(1-benzylpyrrolidin-3-yl)pyridine-3-yl)-6-(1-methyl-1H-pyrazol-4-yl)pyrazolo[1,5-a]pyridine-3-carbonitrile] registered an IC50 of 0.561 µM.
The value for `Cn1ccc(-c2cc(-c3ccc(N4CCN(Cc5ccccn5)CC4)nc3)c3c(C#N)cnn3c2)n1` [Example 588, 6-(1-methyl-1H-pyrazol-3-yl)-4-(6-(4-(pyridine-2-ylmethyl)piperazin-1-yl)pyridin-3-yl)pyrazolo[1,5-a]pyridine-3-carbonitrile] was at least 5 µM.
The value for `COc1ccc(Cn2cc(-c3cc(-c4ccc(N5CCNCC5)nc4)c4c(C#N)cnn4c3)cn2)cc1` [Example 590, 6-(1-(4-methoxybenzyl)-1H-pyrazol-4-yl)-4-(6-(piperazin-1-yl)pyridin-3-yl)pyrazolo[1,5-a]pyridine-3-carbonitrile] was 1.49 µM; that for `N#Cc1cnn2cc(-c3cnn(C4CNC4)c3)cc(-c3ccc(N4CCN(Cc5ccccc5)CC4)nc3)c12` [Example 595, 6-(1-(azetidin-3-yl)-1H-pyrazol-4-yl)-4-(6-(4-benzylpiperazin-1-yl)pyridin-3-yl)pyrazolo[1,5-a]pyridine-3-carbonitrile dihydrochloride] was 0.217 µM.
The value for `CC(C)N1CC(n2cc(-c3cc(-c4ccc(N5CCN(Cc6ccccc6)CC5)nc4)c4c(C#N)cnn4c3)cn2)C1` [Example 596, 4-(6-(4-benzylpiperazin-1-yl)pyridin-3-yl)-6-(1-(1-isopropylazetidin-3-yl)-1H-pyrazol-4-yl)pyrazolo[1,5-a]pyridine-3-carbonitrile] was 0.305 µM.
As to `Cn1cc(-c2cc(-c3ccc(N4CCN(Cc5ccccc5)CC4)nc3)c3c(C#N)cnn3c2)c(C2CC2)n1` [Example 619, 4-(6-(4-benzylpiperazin-1-yl)pyridin-3-yl)-6-(3-cyclopropyl-1-methyl-1H-pyrazol-4-yl)pyrazolo[1,5-a]pyridine-3-carbonitrile], the IC50 is at least 5 µM.
On to `Cc1ncc(-c2cc(-c3ccc(N4CCN(Cc5ccccc5)CC4)nc3)c3c(C#N)cnn3c2)o1` [Example 628, 4-(6-(4-benzylpiperazin-1-yl)pyridin-3-yl)-6-(2-methyloxazol-5-yl)pyrazolo[1,5-a]pyridine-3-carbonitrile], for which the half-maximal inhibitory concentration (IC50) is at least 5 µM.
Regarding `Cc1cc(-c2cc(-c3ccc(N4CCN(Cc5ccccc5)CC4)nc3)c3c(C#N)cnn3c2)on1` [Example 629, 4-(6-(4-benzylpiperazin-1-yl)pyridine-3-yl)-6-(3-methylisoxazol-5-yl)pyrazolo[1,5-a]pyridine-3-carbonitrile], the 50% inhibitory concentration (IC50) is at least 5 µM.
The value for `Cn1cc(-c2cc(-c3cnc(N4CCN(Cc5ccccc5)CC4)nc3)c3c(C#N)cnn3c2)cn1` [Example 639, 4-(2-(4-benzylpiperazin-1-yl)pyrimidin-5-yl)-6-(1-methyl-1H-pyrazol-4-yl)pyrazolo[1,5-a]pyridine-3-carbonitrile] was 4.68 µM.
The value for `CO[C@H]1CCN(C(=O)N2CCN(c3ccc(-c4cc(-c5cnn(C)c5)cn5ncc(Cl)c45)cn3)CC2)C1` [Example 645, (S)-(4-(5-(3-chloro-6-(1-methyl-1H-pyrazol-4-yl)pyrazolo[1,5-a]pyridin-4-yl)pyridin-2-yl)piperazin-1-yl)(3-methoxypyrrolidin-1-yl)methanone] was 1.68 µM; that for `Cc1cnn2cc(-c3cnn(C)c3)cc(-c3ccc(N4CCN(C(=O)[C@H](O)c5ccccc5)CC4)nc3)c12` [Example 652, (R)-2-hydroxy-1-(4-(5-(3-methyl-6-(1-methyl-1H-pyrazol-4-yl)pyrazolo[1,5-a]pyridin-4-yl)pyridin-2-yl)piperazin-1-yl)-2-phenyl ethan-1-one] was 1.7 µM; that for `CCc1cnn2cc(-c3cnn(C)c3)cc(-c3ccc(N4CCN(C(=O)[C@H](O)c5ccccc5)CC4)nc3)c12` [Example 658, (R)-1-(4-(5-(3-ethyl-6-(1-methyl-1H-pyrazol-4-yl)pyrazolo[1,5-a]pyridin-4-yl)pyridin-2-yl)piperazin-1-yl)-2-hydroxy-2-phenylethanone] was 1.84 µM.
The value for `COc1ncc(C(=O)N2C3CC2CN(c2ccc(-c4cc(-c5cnn(C)c5)cn5ncc(C#N)c45)cn2)C3)cc1F` [Example 688, 4-(6-(6-(5-fluoro-6-methoxynicotinoyl)-3,6-diazabicyclo[3.1.1]heptheptan-3-yl)pyridin-3-yl)-6-(1-methyl-1H-pyrazol-4-yl)pyrazolo[1,5-a]pyridine-3-carbonitrile] was 0.0509 µM.
